One test deals with H9 hESCs. In words: BrdU incorporation (hESC proliferation). The format is cell-based, human. To be noted: inhibitor 10 μM (FIG. 4b), NPY medium. The procedure: The proliferation rate of H9 hESCs cultured using the indicated media was measured using BrdU incorporation. […] Upper panels: representative images of BrdU+ cells. Bar=100 μm. Lower panels: Quantification of BrdU+ cells. The relative number of BrdU+ cells per field of vision was quantified and is presented as the percentage of the total number of cells counted.
Human embryonic stem cells were grown on matrigel-coated 4-well LabTec chamber slides for 4 days for the 5-bromo-2-deoxyuridine (BrdU; BD Pharmingen, San Diego) incorporation assays.
For BrdU incorporation, the cells were incubated in the presence of 30 μM BrdU for 1 hr at 37° C. […] After washing, the cells were incubated with the anti-BrdU antibody in PBS supplemented with 3% BSA for 1 hr, and then incubated with a FITC-conjugated secondary antibody (Invitrogen) for 30 min. The nuclei were stained with DAPI and examined using an Olympus microscope. The mean number of BrdU+ cells per field of vision was determined. At least four fields of vision per coverslip were counted.
Background: Incorporation of labelled thymidine or its analogues reports DNA synthesis.

Another test deals with phospho-AKT in H9 cells. In words: Western blot of NPY signalling: AKT phosphorylation. The format is cell-based, human. To be noted: 1 μM NPY. The protocol:
(§1) The membranes were probed with the indicated antibodies, and β-actin was used as a loading control. For protein quantification, the blots were scanned, and the bands were quantified using densitometry (a-c, lower panels). The data are presented as the mean±SE (n=3). **p<0.01, *p<0.05, by t-test.
(§2) The supernatant was re-centrifuged for 10 min, and protein concentrations determined using the BCA protein assay kit (Pierce, Rockford, Ill.). Proteins (20 μg) were fractionated by SDS polyacrylamide gel electrophoresis (PAGE), and electrotransferred to polyvinylidene fluoride (PVDF) membranes (Millipore Corp, Bedford, Mass.). Membranes were blocked in PBS containing 0.1% Tween-20 and 5% non-fat milk for 2 hrs at room temperature, and probed with primary antibodies diluted in PBS/0.2% BSA for 1 hr. After washing, membranes were incubation with the corresponding secondary anti-rabbit HRP-conjugated or anti-mouse HRP-conjugated antibodies (Amersham, Arlington Heights, Ill.), and the bands were visualized using the ECL Advance kit (Amersham). Bands were analyzed for density with Image Gauge software (Fuji Photo Film GMBH, D) and normalized to loading control (β-actin) bands. All experiments were performed in triplicate. Error bars represent standard error of the mean (n=3).

Another test deals with phospho-CREB in H9 cells. In words: Western blot / immunohistochemistry of NPY signalling: CREB phosphorylation. Type of test: cell-based, human. To be noted: 1 μM NPY; for Effect on NPY-mediated CREB phosphorylation: pretreatment with kinase inhibitor, inhibition appeared incomplete. The protocol:
as §1
For immunostaining, cells were plated on matrigel-coated 4-well Lab-Tek chamber slides (Nunc, Naperville, Ill.) and cultured for 5 days under described conditions. […] Cells were incubated for 2 hrs at 4° C. with respective primary antibodies diluted in PBS/0.2% BSA. After washing, cells were incubated with FITC- or Alexa 594-conjugated secondary antibodies (Invitrogen) in PBS/0.2% BSA for 1 hr at room temperature. Cells were counterstained using 10 μg/ml DAPI (4′,6-diamidino-2-phenylindole). Chamber slides were analyzed by an Olympus microscope or Axiovert 200M microscope (Carl Zeiss, Gottingen, Germany).
as §2
(In western blotting, separated proteins are transferred to a membrane and probed.)

In the next test the test system is H9 cells. Kind of test: Growth efficiency test (cell number). To be noted: TGFβ addition (1 ng/ml) to N2/B27 medium with NPY, compared with MEF-CM and UM supplemented with NPY. Type of test: cell-based, human. The procedure: Comparison of the growth efficiency of H9 cells cultured using the indicated media for 6 days by measuring the cell number as described in Materials and Methods. The data are presented as the mean±SE (n=3). **p<0.01, *p<0.02, by t-test.
hESC clumps (100×100 μm; approximately 70-90 cells per clump) was seeded evenly on a 35 mm culture dish coated with Matrigel in a final volume of 2 ml. The cells were plated to a cell density of approximately 5×10^5 cells per 35 mm culture dish. The plated cells were allowed to grow for 6 days under described culture conditions. To determine the number of cells, the cells were washed with PBS and trypsinized. The cell suspension was mixed with a 0.4% (wt/vol) trypan blue solution, and the number of live cells was determined using a hemocytometer. Each trial was performed in triplicate.

The subject of test [1] is phospho-ERK1/2 in H9 cells. In words: Western blot of NPY signalling: ERK1/2 phosphorylation. Type of test: cell-based, human. To be noted: 30 min pretreatment with receptor antagonist (3 μM in FIG. 11 legend), 1 μM NPY. The protocol:
as §1, §2

For test [2], the system named is human embryonic stem cells. Kind of test: Feeder-free culture: maintenance of undifferentiated state (morphology, ALP staining, hESC markers). Type of test: cell-based. To be noted: 3 μM antagonist in NPY medium. The procedure:
Each experiment was carried out at least three times. […] Error bars represent standard error of the mean (n=3).

Entries after “also recorded” stand apart in the source; their conditions may differ.

For the compound `N#CC(=C(/N)Sc1ccccc1N)/C(C#N)=C(\N)Sc1ccccc1N` [U0126], the “Effect on NPY-stimulated BrdU incorporation” value in the test on H9 hESCs was “potent in suppressing NPY-stimulated BrdU incorporation”. Besides, the “Effect on NPY-mediated AKT activation” value with phospho-AKT in H9 cells (pretreatment with kinase inhibitor (10 μM in FIG. 12 legend)) is on record as “inhibited”. Further, the “Effect on NPY-mediated CREB phosphorylation” value in the test on phospho-CREB in H9 cells is “blocked”.

As for TGFβ, the “Effect on growth efficiency (cell number)” value in the test on H9 cells is listed as “did not affect the growth efficiency”.

Turning to `NC(N)=NCCC[C@@H](NC(=O)C(c1ccccc1)c1ccccc1)C(=O)NCc1ccc(O)cc1` [BIBP3226], in the test on phospho-AKT in H9 cells (30 min pretreatment with receptor antagonist (3 μM in FIG. 11 legend)), the “Effect on NPY-mediated AKT activation” value was “significantly reduced”. In addition, the “Effect on NPY-mediated ERK activation” value in test [1] is listed as “significantly reduced”. In addition, the “Effect on NPY-mediated up-regulation of p-CREB” value in the test on phospho-CREB in H9 cells (pretreatment with receptor antagonist) is given as “partially blocked”. Also, in test [2], the “Maintenance of undifferentiated state in NPY medium in presence of antagonist (morphology; ALP, OCT4, SOX2, hTERT, TDGF)” value is “fail to maintain in an undifferentiated state; also recorded: loss of undifferentiated human embryonic stem cells”.

With `O=S(=O)(NCCNC/C=C/c1ccc(Br)cc1)c1cccc2cnccc12` [H89], the “Effect on NPY-stimulated BrdU incorporation” value in the test with H9 hESCs is listed as “potent in suppressing NPY-stimulated BrdU incorporation”. Besides, in the test with phospho-CREB in H9 cells, the “Effect on NPY-mediated CREB phosphorylation” value is “blocked”.

(Values after patent US8628963B2, “Medium composition comprising neuropeptide Y for the generation, maintenance, prolonged undifferentiated growth of pluripotent stem cells and method of culturing pluripotent stem cell using the same” (Korea Research Institute of Bioscience and Biotechnology, priority 2009, dated 2014).)
